Results as given in patent publication US12295972B2, “Methods using freeze-dried platelet derivative compositions for restoring hemostasis in a subject” (Cellphire, Inc., priority 2021, dated 2025).
“Also recorded” adds a separate entry of the source. Where a SMILES comes first, the peptide text is derived from it. Bridges are numbered along the chain shown (N, C = ends). [ ]: non-standard residue; d: D form. hArg = N=C(N)NCCCC[C@H](N)C(=O)O; Mpa = O=C(O)CCS

Legend:
platelet rich plasma [1] = experiment: T-TAS AR chip (collagen and tissue factor) occlusion, platelet rich plasma; type: cell-based, human
thrombin generation = experiment: Thrombin generation assay (TGA); type: biochemical, human; settings: PPP from patients taking baby aspirin daily; absence of FDPDs
[2] = same 500 mg dose orally; cited from earlier work
whole blood [3] = experiment: T-TAS PL chip (collagen only) thrombus formation, whole blood; type: cell-based, human; settings: 100 and 500 μM aspirin
Description: Platelets will aggregate with collagen and arachidonic acid stimulation. […] The PL chip system on the T-TAS® was used to emulate in vitro platelet binding and aggregation due to the exposure of collagen in the vasculature under shear conditions.
PL chips are run similarly to AR chips but this chip is only coated with collagen alone.

[4] = system: platelets in platelet-rich plasma (PRP); experiment: Transmission light aggregometry of platelets in PRP with antiplatelet agents; type: cell-based, human
Method: Plasma samples with platelet or FDPDs or combination of both are loaded into cuvettes and placed into the aggregometry chambers. The chambers warm the sample and provide constant stirring. The initiation of aggregation can be done by multiple types of […] agents not limited to thrombin, ADP, collagen and any agent know to stimulate platelet aggregation. […] The instrument begins the assay by first recording the light transmission previous to stimulation for 2 minutes. The stimulant of interest is then introduced by the technician and the change in light transmission is recorded overtime. The increase in light transmission corresponds to increase in platelet aggregation.

platelet rich plasma [5] = experiment: T-TAS AR chip (collagen and tissue factor) occlusion, platelet rich plasma; type: cell-based, human; settings: for occlusion time of ADP stimulated PRP: ADP 2 μM, cangrelor 1 μM (n=4) or ticagrelor 500 ng/mL (n=5)
Method: The effect of cangrelor on platelet occlusion under shear was evaluated by T-TAS®.
Evaluation by T-TAS® using an AR chip. AR chips are characterized by a single channel containing collagen and tissue factor; they can be used to analyze clotting and platelet function.

platelet function = settings: in vivo; cited from earlier work
whole blood [6] = experiment: T-TAS AR chip occlusion, whole blood; type: cell-based, human; settings: 6 μM eptifibatide
Description: The effect of FDPDs on shortening clotting times while in the presence of eptifibatide was also studied. The ability of FDPDs to recover occlusion times was studied on the T-TAS® system. The T-TAS® system measures occlusion time under shear forces with collagen and thromboplastin stimulation. The whole blood profile of occlusion and AUC on the AR T-TAS® chip lengthened and decreased, respectively, with eptifibatide. Eptifibatide extended the occlusion time of whole blood on the T-TAS® AR Chip in a dose-dependent manner. In this experiment, whole blood occluded at 8 minutes, and the occlusion time was extended to 16 minutes with 6 μM eptifibatide (FIG. 9). FDPDs reversed the inhibitory effect of eptifibatide on thrombus formation. Eptifibatide inhibition of whole blood occlusion on the T-TAS® AR Chip was reversed by the addition of FDPDs at approximately 200,000/μL (N=3). When FDPDs (approximately 200 k/μL) were added to the sample of whole blood inhibited with eptifibatide, the time to occlusion decreased to ‘normal’ at 9 minutes (FIG. 10).
Evaluation by T-TAS® using an AR chip. […]
Occlusion time was measured on the Total […] formation Analysis System (T-TAS®) 01 using AR chips (Collagen and Tissue FactorF stimulant). […] FDPDS were rehydrated, counted (Beckman Coulter AcT Diff 2 Cell Counter), and added to whole blood at the indicated final concentration. […]

pooled normal plasma = experiment: Activated clotting time (ACT) in pooled normal plasma with heparin and protamine; type: biochemical, human; settings: heparin titration
Method: This experiment assessed how clinical proportions of Heparin and Protamine affect FDPD function. FDPDs were prepared according to the procedure in Example 15. An Activating Clotting Time (ACT) assay was performed to measure time to clot and TGA was performed to measure thrombin generation. An initial Heparin titration run was performed using ACT to find the minimum Heparin dose needed to reach abnormal clot time.
Activated clotting time was measured using pooled normal plasma with heparin (H) and protamine (P) as labeled on the x-axis; ½ P, P, and 3/2 P represent protamine doses of 4, 8, and 12 μg/ml, respectively. FDPDs, (referred to as “Tsomes” in FIG. 40) were added at 10, 25 or 50 K/μl. […] “K” in the legend stands for 10^3 FDPDS. All samples were run in duplicate. N=2. The experiment was repeated on separate days to improve statistical relevance.

[7] = cangrelor 1 μM combined with ADP 10 μM

CC(=O)Oc1ccccc1C(=O)O [aspirin, acetylsalicylic acid]
occlusion time of PRP (platelet rich plasma [1]; PRP 30K/μL): > 30 min | occlusion of PRP taken from an aspirin patient (platelet rich plasma [1]; ex vivo, subject on 81 mg/day of aspirin): failed to occlude | peak thrombin (thrombin generation): about 45 nM | peak concentration [2]: 44 µM | platelet binding and aggregation on collagen under shear (whole blood [3]): largely limited | arachidonic acid induced platelet aggregation in PRP ([4]; AA 500 ug/mL, aspirin 100-400 μM): eliminated arachidonic acid induced platelet aggregation entirely | collagen stimulated platelet aggregation in PRP ([4]; collagen 10 ug/mL, aspirin 100-400 μM): partially inhibited

CSCCNc1nc(SCCC(F)(F)F)nc2c1ncn2[C@@H]1O[C@H](COP(=O)(O)OP(=O)(O)C(Cl)(Cl)P(=O)(O)O)[C@@H](O)[C@H]1O [cangrelor]
ADP-induced platelet aggregation in PRP ([4]; 10 μM ADP, cangrelor 0.5 μM-3.5 μM): complete inhibition | occlusion time of PRP (platelet rich plasma [5]; 100 ng/mL cangrelor and ADP): 26 min | occlusion time of ADP stimulated PRP (platelet rich plasma [5]): 28.0 ± 3.0 min | area under the curve (AUC) of PRP (platelet rich plasma [5]; [7]): dropped close to zero | platelet adhesion and occlusion of PRP (platelet rich plasma [5]; [7]): essentially eliminated; also recorded: inhibited occlusion essentially completely | area under the curve (AUC) of PRP (platelet rich plasma [5]; cangrelor alone 1 μM): little effect | occlusion / occlusion time of PRP (platelet rich plasma [5]; cangrelor alone 1 μM): did not exhibit inhibition; also recorded: little effect

COC(=O)[C@H](c1ccccc1Cl)N1CCc2sccc2C1 [clopidogrel]
time until platelet function is returned after stopping infusion (platelet function): approximately 1 hour

N=C(N)NCCCC[C@@H]1NC(=O)CCSSC[C@@H](C(N)=O)NC(=O)[C@@H]2CCCN2C(=O)[C@H](Cc2c[nH]c3ccccc23)NC(=O)[C@H](CC(=O)O)NC(=O)CNC1=O [eptifibatide] ([Mpa][hArg]GDWPC-NH2; disulfide 1-7)
time for bleeding time to return to normal after drug stoppage (platelet function): ≤ 1 h | occlusion time of PRP (platelet rich plasma [1]; 9 μM eptifibatide): over 30 minutes | occlusion time of whole blood (whole blood [6]): 16 min | collagen-induced platelet aggregation in PRP ([4]; collagen 10 μg/mL, all eptifibatide concentrations tested): completely inhibited

CC(C)Cc1ccc(C(C)C(=O)O)cc1 (centres unmarked) [ibuprofen]
occlusion of PRP from ibuprofen patient (platelet rich plasma [1]; addition of ADP): abolished occlusion | occlusion of PRP from ibuprofen patient (platelet rich plasma [1]; subject on 800 mg ibuprofen): demonstrated occlusion | aggregation in response to arachidonic acid ([4]; PRP from subject on 800 mg ibuprofen): lack of aggregation

CCCSc1nc(N[C@@H]2C[C@H]2c2ccc(F)c(F)c2)c2nnn([C@@H]3C[C@H](OCCO)[C@@H](O)[C@H]3O)c2n1 [ticagrelor]
time until platelet function can return after the last dosage (platelet function): approximately 72 hours | occlusion time of ADP stimulated PRP (platelet rich plasma [5]): 28.0 ± 3.0 min

CCCCS(=O)(=O)N[C@@H](Cc1ccc(OCCCCC2CCNCC2)cc1)C(=O)O [tirofiban]
occlusion time of PRP (platelet rich plasma [1]; 100 ng/mL tirofiban): no occlusion

heparin
minimum Heparin dose needed to reach abnormal clot formation (pooled normal plasma): 0.8 U/mL
